Converted amounts (≈) assume the structure as drawn. Read-outs that look alike come from different tables or passages of the source.
Key:
[1] = test system: P. aeruginosa ATCC 9027; assay: Antibacterial activity, pre-exposure; type: cell-based, Pseudomonas aeruginosa; details: for Average inhibition %, biofilms viability / Average inhibition %, planktonic cells viability / inhibition at 50 µM / inhibition at 100 µM / inhibition at 150 µM / inhibition at 200 µM: P. aeruginosa ATCC 9027, pre-exposure, ± SD; for inhibition at 50 µM / inhibition at 100 µM / inhibition at 150 µM / inhibition at 200 µM: Pseudomonas aeruginosa, ATCC9027
Outline: (§1)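 Read-outs were turbidity and resazurin reduction for planktonic cells, and resazurin followed by crystal violet biomass (A595) for biofilms. Compounds were present from inoculation onward, with 18 h aerobic growth at 37 °C under shaking.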

[2] = test system: S. aureus ATCC 25923; assay: Antibacterial activity, post-exposure on preformed 18-h-old biofilms; type: cell-based, Staphylococcus aureus; details: ± SD; for inhibition at 25 µM / inhibition at 50 µM / inhibition at 100 µM / inhibition at 200 µM: Staphylococcus aureus; for inhibition at 25 µM: ATCC25923, 25 µM; for inhibition at 50 µM: ATCC25923, 50 µM; for inhibition at 100 µM: ATCC25923, 100 µM; for inhibition at 200 µM: ATCC25923, 200 µM
Outline: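 Biofilms grown 18 h without compound, medium then replaced and compound added for a further 24 h. Planktonic OD and resazurin (20 μM final) fluorescence (ex 560/em 590 nm) read; washed biofilms stained with 20 μM resazurin 30 min at 37 °C, then ethanol-fixed and crystal violet-stained, absorbance 595 nm.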

[3] = test system: A. baumannii NCTC 13423; assay: Antibacterial activity, pre-exposure; type: cell-based, Acinetobacter baumannii; details: for Average inhibition %, biofilms viability / Average inhibition %, planktonic cells viability / inhibition at 10 µM / inhibition at 15 µM / inhibition at 25 µM / inhibition at 50 µM: A. baumannii NCTC 13423, pre-exposure, ± SD; for inhibition at 10 µM / inhibition at 15 µM / inhibition at 25 µM / inhibition at 50 µM / MIC: Acinetobacter baumannii, NCTC13423
Outline: as §1

[4] = test system: S. aureus ATCC 25923; assay: Antibacterial activity, pre-exposure (planktonic cells and biofilm formation); type: cell-based, Staphylococcus aureus; details: for MIC / inhibition at 5 µM / inhibition at 10 µM / inhibition at 15 µM / inhibition at 25 µM: Staphylococcus aureus, ATCC25923; for inhibition at 5 µM / inhibition at 10 µM / inhibition at 15 µM / inhibition at 25 µM / Average inhibition %, biofilms viability / Average inhibition %, planktonic cells viability: pre-exposure, ± SD
Outline: as §1

[5] = 50 µM, read-out: Average inhibition %, biofilms biomass
[6] = 50 µM, read-out: Average inhibition %, planktonic cells turbidity
[7] = read-out: Average inhibition %, biofilms biomass
[8] = read-out: Average inhibition %, planktonic cells turbidity
[9] = 10 µM, read-out: Average inhibition %, biofilms biomass
[10] = 10 µM, read-out: Average inhibition %, planktonic cells turbidity
[11] = 15 µM, read-out: Average inhibition %, biofilms biomass
[12] = 15 µM, read-out: Average inhibition %, planktonic cells turbidity
[13] = 25 µM, read-out: Average inhibition %, biofilms biomass
[14] = 25 µM, read-out: Average inhibition %, planktonic cells turbidity

Q: What does the source list for `CCCCCCCCc1ccc2nc(CCC(N)(CO)CO)ccc2c1` [Compound 80, 2-Amino-2-[2-(6-octylquinolin-2-yl)ethyl]propane-1,3-diol]?
A: Average inhibition %, biofilms viability ([1]; 50 µM): 9.8 ± 12.2%; Average inhibition %, planktonic cells viability ([1]; 50 µM): 39.9 ± 11%; Average inhibition %, biofilms viability ([1]; 100 µM): 10.5 ± 10%; Average inhibition %, planktonic cells viability ([1]; 100 µM): 46.1 ± 11.6%; Average inhibition %, biofilms viability ([1]; 150 µM): 14.3 ± 12.2%; Average inhibition %, planktonic cells viability ([1]; 150 µM): 22.9 ± 1.7%; Average inhibition %, biofilms viability ([1]; 200 µM): 15.3 ± 15.9%; Average inhibition %, planktonic cells viability ([1]; 200 µM): 33.1 ± 16.1%; inhibition at 50 µM [1, 5]: 5.2 ± 5.2%; inhibition at 50 µM [1, 6]: 48 ± 11.1%; inhibition at 100 µM ([1]; 100 µM, read-out: Average inhibition %, biofilms biomass): 0%; inhibition at 100 µM ([1]; 100 µM, read-out: Average inhibition %, planktonic cells turbidity): 55.5 ± 5.2%; inhibition at 150 µM ([1]; 150 µM, read-out: Average inhibition %, biofilms biomass): 12.1 ± 10.7%; inhibition at 150 µM ([1]; 150 µM, read-out: Average inhibition %, planktonic cells turbidity): 42.1 ± 13.6%; inhibition at 200 µM ([1]; 200 µM, read-out: Average inhibition %, biofilms biomass): 12.3 ± 19.1%; inhibition at 200 µM ([1]; 200 µM, read-out: Average inhibition %, planktonic cells turbidity): 55.3 ± 0.9%; MIC P. aeruginosa ATCC 9027 ([1]; pre-exposure, Inactive = no activity up to 200 μM, > = some inhibition but no MIC reached): Inactive; Average inhibition %, biofilms viability ([2]; 25 µM): 13.8 ± 11.7%; Average inhibition %, planktonic cells viability ([2]; 25 µM): 17.5 ± 26.7%; Average inhibition %, biofilms viability ([2]; 50 µM): 29.8 ± 10.2%; Average inhibition %, planktonic cells viability ([2]; 50 µM): 21.5 ± 33.1%; Average inhibition %, biofilms viability ([2]; 100 µM): 48.6 ± 5.2%; Average inhibition %, planktonic cells viability ([2]; 100 µM): 81 ± 8%; Average inhibition %, biofilms viability ([2]; 200 µM): 48.4 ± 12%; Average inhibition %, planktonic cells viability ([2]; 200 µM): 93.2 ± 1.3%; inhibition at 25 µM [2, 7]: 25.1 ± 16.4%; inhibition at 25 µM [2, 8]: 31.7 ± 26.5%; inhibition at 50 µM [2, 7]: 50.2 ± 3.2%; inhibition at 50 µM [2, 8]: 26 ± 39.1%; inhibition at 100 µM [2, 7]: 61.9 ± 7.7%; inhibition at 100 µM [2, 8]: 64.3 ± 18.5%; inhibition at 200 µM [2, 7]: 51.5 ± 9.6%; inhibition at 200 µM [2, 8]: 73.4 ± 9.8%; Average inhibition %, biofilms viability ([3]; 10 µM): 0 ± 0%; Average inhibition %, planktonic cells viability ([3]; 10 µM): 7.2 ± 5.2%; Average inhibition %, biofilms viability ([3]; 15 µM): 71.9 ± 26.2%; Average inhibition %, planktonic cells viability ([3]; 15 µM): 98.9 ± 0.3%; Average inhibition %, biofilms viability ([3]; 25 µM): 101.6 ± 1.6%; Average inhibition %, planktonic cells viability ([3]; 25 µM): 99.6 ± 0.1%; Average inhibition %, biofilms viability ([3]; 50 µM): 101.8 ± 1.3%; Average inhibition %, planktonic cells viability ([3]; 50 µM): 99.5 ± 0.2%; inhibition at 10 µM [3, 9]: 1.6 ± 2.8%; inhibition at 10 µM [3, 10]: 0.8 ± 1.5%; inhibition at 15 µM [3, 11]: 53 ± 33.4%; inhibition at 15 µM [3, 12]: 96.4 ± 3%; inhibition at 25 µM [3, 13]: 84.3 ± 5.9%; inhibition at 25 µM [3, 14]: 99 ± 0.9%; inhibition at 50 µM [3, 5]: 74.7 ± 11.4%; inhibition at 50 µM [3, 6]: 98.8 ± 0.9%; MIC ([3]; pre-exposure, Inactive = no activity up to 50 μM, > = some inhibition but no MIC reached, read-out: MIC A. baumannii NCTC 13423): 15 to 25 µM (≈ 5.38 to 8.96 µg/mL); MIC ([3]; supplementary molecular formula strings sheet, read-out: MIC (A. baumannii)): 15 to 25 µM (≈ 5.38 to 8.96 µg/mL); MIC ([4]; lowest concentration with no visible growth (>90% inhibition of turbidity and viability of planktonic cells), 18 h, read-out: MIC S. aureus ATCC 25923): 10 µM (≈ 3.59 µg/mL); inhibition at 5 µM ([4]; 5 µM, read-out: Average inhibition %, biofilms biomass): 24.2 ± 6.6%; inhibition at 5 µM ([4]; 5 µM, read-out: Average inhibition %, planktonic cells turbidity): 43 ± 17%; inhibition at 10 µM [4, 9]: 97.6 ± 1%; inhibition at 10 µM [4, 10]: 99 ± 0.7%; inhibition at 15 µM [4, 11]: 97.3 ± 0.6%; inhibition at 15 µM [4, 12]: 99.5 ± 0.3%; inhibition at 25 µM [4, 13]: 92.3 ± 1.5%; inhibition at 25 µM [4, 14]: 99.1 ± 0.3%; MIC ([4]; read-out: MIC (S. aureus)): 10 µM (≈ 3.59 µg/mL); Average inhibition %, biofilms viability ([4]; 5 µM): 26.7 ± 15.1%; Average inhibition %, planktonic cells viability ([4]; 5 µM): 13.9 ± 22.4%; Average inhibition %, biofilms viability ([4]; 10 µM): 99.2 ± 1.4%; Average inhibition %, planktonic cells viability ([4]; 10 µM): 99.4 ± 0%; Average inhibition %, biofilms viability ([4]; 15 µM): 99.5 ± 0.5%; Average inhibition %, planktonic cells viability ([4]; 15 µM): 99.5 ± 0%; Average inhibition %, biofilms viability ([4]; 25 µM): 99.4 ± 0.3%; Average inhibition %, planktonic cells viability ([4]; 25 µM): 99.7 ± 0%
